Experimental data published in ChEMBL document CHEMBL1125521, “Oxygen isosteric derivatives of 3-(3-hydroxyphenyl)-N-n-propylpiperidine” (J Med Chem, 1992).
Calls of active or inactive are those of the source. The rule behind the calls is not given here.

Tests used:
D(2) dopamine receptor = D(2) dopamine receptor (Rattus norvegicus, UniProt P61169); assay: Ability to displace [3H]spiroperidol, from dopamine receptor D2 specific binding sites of rat striatal membranes; design: species or system Striatum, Membrane
Chain of D(2) dopamine receptor (P61169 whole entry): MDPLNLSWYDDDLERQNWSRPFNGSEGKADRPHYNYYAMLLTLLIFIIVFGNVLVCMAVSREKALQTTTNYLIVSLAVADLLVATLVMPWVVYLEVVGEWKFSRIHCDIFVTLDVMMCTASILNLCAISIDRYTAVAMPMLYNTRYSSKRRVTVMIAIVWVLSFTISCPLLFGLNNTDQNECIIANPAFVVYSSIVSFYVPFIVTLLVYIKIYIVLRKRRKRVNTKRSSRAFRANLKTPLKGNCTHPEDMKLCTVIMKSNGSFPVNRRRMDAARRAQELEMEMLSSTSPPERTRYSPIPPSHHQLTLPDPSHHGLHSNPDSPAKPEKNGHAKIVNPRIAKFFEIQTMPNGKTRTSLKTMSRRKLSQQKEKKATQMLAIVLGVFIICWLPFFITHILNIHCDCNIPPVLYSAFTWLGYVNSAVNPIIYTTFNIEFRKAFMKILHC

[1] = molecular target: D(2) dopamine receptor (Rattus norvegicus) (UniProt P61169); assay: Displacement of [3H]spiroperidol from dopamine receptor D2 binding sites of rat striatal membranes; inactive; assay type: cell membranes; details: Membrane
Chain of D(2) dopamine receptor (Rattus norvegicus) (P61169 whole entry): as above

[2] = molecular target: Serotonin 1 (5-HT1) receptor (Rattus norvegicus, UniProt P28564+P30940+P19327+P28565); assay: Compound was evaluated for the inhibition of [3H]5-HT (concentration of 12 nM) specific binding to rat hippocampus; assay type: tissue-based

Structure (SMILES)	IC50 (D(2) dopamine receptor) [µM]	Activity [1]	IC50 [2] [µM]
CCCN1CCCC(c2ccccc2O)C1 (stereo not given)	7		
CCCN1CCOC(c2cccc(O)c2)C1 (stereo not given)		inactive	
CCCN1CCOC(c2cccs2)C1 (stereo not given)		inactive	
CCCN1CCOC(c2cccc(Cl)c2)C1 (stereo not given)		inactive	5
CCCN1CCOC(c2ccsc2)C1 (stereo not given)		inactive	
CCCN1CCOC(c2ccccc2OC)C1 (stereo not given)		inactive	1
CCCN1CCOC(c2cccc([N+](=O)[O-])c2)C1 (stereo not given)		inactive	
CCCN1CCOC(c2ccccc2Cl)C1 (stereo not given)		inactive	3
CCCN1CCOC(c2ccccc2O)C1 (stereo not given)		inactive	
CCCN1CCCC(c2ccccc2OC)C1 (stereo not given)	8		
CCCN1CCOC(c2cccc(OC)c2)C1 (stereo not given)		inactive	1
